“Also recorded” adds a separate entry of the source.
What was measured:
Assay type in all cases: cell-based, rat
[1] = tested on: DRG neurons; test: Axon growth of DRG neurons transfected with G3BP1 constructs or siRNA; settings: siRNA-mediated knockdown, 100 nM siRNA vs. control siRNA; FIG. 15C
Method: For primary neuronal cultures, L4-5 DRG were harvested in Hybernate-A medium (BrainBits) and then dissociated as known to those of skill in the art. After centrifugation and washing in DMEM/F12 (Life Technologies), cells were resuspended in DMEM/F12, 1×N1 supplement (Sigma), 10% fetal bovine serum (Hyclone), and 10 μM cytosine arabinoside (Sigma). Dissociated DRGs were plated immediately on laminin/poly-L-lysine-coated coverslips or transfected (see below) and then plated on coated coverslips.
For DRG neuron transfection, dissociated ganglia were pelleted by centrifugation at 100×g for 5 min and resuspended in ‘nucleofector solution’ (Rat Neuron Nucleofector kit; Lonza). 5-7 μg plasmid was electroporated using an AMAXA Nucleofector apparatus (program SCN-8; Lonza). For siRNA transfection, 100 nM siRNAs (Dharmacon) were used with DharmaFECT 3 reagent and incubated for 36 h. G3BP1 siRNA sequence: 5′ […] 3′. Non-targeting siRNAs (siCon) were as control. RTddPCR was used to test the efficiency of depletion (see below). HEK293T cells were transfected using Lipofectamine® 2000 per manufacturer's instructions (Invitrogen). AAV5 preparations were titrated in DRG cultures by incubating with […] particles of AAV5 overnight.
For neurite outgrowth, images from 60 h DRG cultures were analyzed for neurite outgrowth using WIS-Neuromath. […]

[2] = tested on: DRG neurons; test: Axon growth of dissociated DRG neuron cultures treated with Tat-fused G3BP1 peptides
Method: For primary neuronal cultures, L4-5 DRG were harvested in Hybernate-A medium (BrainBits) and then dissociated as known to those of skill in the art. After centrifugation and washing in DMEM/F12 (Life Technologies), cells were resuspended in DMEM/F12, 1×N1 supplement (Sigma), 10% fetal bovine serum (Hyclone), and 10 μM cytosine arabinoside (Sigma). Dissociated DRGs were plated immediately on laminin/poly-L-lysine-coated coverslips or transfected (see below) and then plated on coated coverslips. […] Neurite outgrowth was assessed 24 h after addition of peptides. For the cortical cultures, 10 μM peptide was applied to the axonal compartment at 3 d in vitro (DIV) and axonal growth was assessed at 6 DIV. For neurite outgrowth, images from 60 h DRG cultures were analyzed for neurite outgrowth using WIS-Neuromath. Axon morphology was visualized using GFP and/or NF immunofluorescence as described.

[3] = tested on: axonal mRNA translation in DRG neurons; test: FRAP of axonally targeted translation reporters in DRG neurons; settings: G3BP1-overexpressing DRGs, 10 μM peptide; FIG. 14C
Method: FRAP was used to test for axonal mRNA protein synthesis using diffusion-limited GFP^MYR and mCherry^MYR reporters as described with minor modifications. In each case, DRG neurons were co-transfected with […]+mCherry^MYR5'/3'gap43 or […]β1+mCherry^MYR5'/3'gap43 so that recovery of both reporters could be analyzed simultaneously. Cells were maintained at 37° C., 5% CO2 during imaging sequences. 488 nm and 514 nm laser lines on Leica SP8X confocal microscope were used to bleach GFP and mCherry signals, respectively (Argon laser at 70% power, pulsed every 0.82 sec for 80 frames). Pinhole was set to 3 Airy units to ensure full thickness bleaching and acquisition (63×/1.4 NA oil immersion objective). Prior to photobleaching, neurons were imaged every 60 sec for 2 min to acquire baseline fluorescence the region of interest (ROI; 15% laser power, 498-530 nm for GFP and 565-597 nm for mCherry emissions, respectively). The same excitation and emission parameters were used to assess recovery over 15 min post-bleach with images acquired at 30 sec intervals. To determine if fluorescence recovery in axons was from translation, cultures were treated with 150 μg/ml cycloheximide (Sigma) or 100 μM anisomycin (Sigma) for 30 min. prior to photobleaching for […]+mCherry^MYR5'/3'gap43 and […] transfected DRGs, respectively. For peptide treatments, G3BP1-mCh transfected DRG neurons were treated with 10 μM G3BP1 peptides after acquiring the baseline expression values. Photobleaching followed by analyses of recovery was performed after 30 min of peptide exposure. Fluorescent intensities in the ROIs were calculated by the Leica LASX software. For normalizing across experiments, fluorescence intensity value at t=0 min post-bleach from each image sequence was set as 0%. The percentage of fluorescence recovery at each time point after photobleaching was then calculated by normalizing relative to the pre-bleach fluorescence intensity (set at 100%).

[4] = tested on: cortical neurons; test: Axon growth of cortical neurons in microfluidic devices, peptide applied to axonal compartment; settings: 10 μM peptide applied to axonal compartment at 3 DIV, assessed at 6 DIV; FIG. 11C
Method: For cortical neuron cultures, E18 cortices were dissected in Hibernate E (BrainBits) and dissociated using the Neural Tissue Dissociation kit (Miltenyi Biotec). […] After washing and centrifugation, neurons were seeded at a density of 1×10^5 cells per poly-D-lysine-coated microfluidic device (Xona Microfluidics). NbActive-1 medium (BrainBits) supplemented with 100 U/ml of Penicillin-Streptomycin (Life Technologies), 2 mM L-Glutamine (Life Technologies), and 1×[…] supplement (R&D Systems) was used as culture medium. For peptide treatments, 10 μM Tat-fused peptides were added to dissociated DRG cultures at 2 or 12 h after plating. Neurite outgrowth was assessed 24 h after addition of peptides. For the cortical cultures, 10 μM peptide was applied to the axonal compartment at 3 d in vitro (DIV) and axonal growth was assessed at 6 DIV.

[5] = tested on: axonal G3BP1-mCh aggregates; test: Live cell imaging of G3BP1-mCherry granules in DRG axons
Method: DRG neurons were transfected with G3BP1-mCherry, and 36 h later distal axons were imaged using Leica SP8X confocal microscope with environmental chamber maintained at 37° C., 5% CO2 (with 63×/1.4 NA oil immersion objective). Confocal pinhole was set to 0.43 airy units. G3BP1-mCherry signals were imaged in axon shaft every 2 sec for 100 frames (at 540 nm excitation and 23% white light laser power; 565-597 nm emission). To study the effect of the G3BP1 190-208 peptide on the G3BP1-mCherry granules, 10 μM FITC-conjugated peptide was added to the media and 15 min later imaging was continued. For G3BP1-mCherry aggregates, a 100 μm of the axon shaft was considered (≥200 μm from cell body). Thresholding was applied to acquired image sequences using ImageJ to generate binary masks. ImageJ particle analyzer was used for analysis. G3BP1 aggregates with area of ≥1 μm2 were considered as SG-like structures. For analyzing the G3BP1 aggregate velocity, ImageJ […] plug-in was used.

[6] = tested on: protein synthesis in DRG neurons; test: Puromycinylation assay for newly synthesized proteins in DRG neurons; settings: peptide treatment, compared to control and 168-189 peptide, FIG. 12D
Method: To visualize newly synthesized proteins in cultured neurons, the current disclosure used the Click-iT® Plus OPP Protein Synthesis Assay Kit per manufacturer's instructions (Invitrogen/Life Technologies). Briefly, 3 DIV cultures were incubated with 20 μM O-propargyl-puromycin (OPP) for 30 min at 37° C. OPP-labeled proteins were detected by crosslinking with Alexa Fluor-594 picolyl azide molecule. Coverslips were then mounted with Prolong Gold Antifade (Invitrogen) and imaged with Leica DMI6000 epifluorescent microscope as above. ImageJ was used to quantify the Puromycinylation signals in distal axons and cell bodies.

[7] = 10 μM peptide added to DRG cultures immediately after plating, FIG. 16B

| Substance | axon growth [1] | axon length [2, 7] | axonal translation of GFPMYR5′/3′impβ1 mRNA [3] | axonal translation of GFPMYR5′/3′nrn1 mRNA [3] | axonal translation of mChMYR5′/3′gap43 mRNA [3] | axon growth [4] | axonal G3BP1-mCh aggregates (density along 100 μm axon) ([5]; 10 μM peptide, within 15 min, FIG. 12G) | size of remaining SG-like structures in axons ([5]; after 10 μM peptide treatment, 15 min, FIG. 12H) | motility of remaining aggregates ([5]; after peptide treatment vs. control conditions) | number of neurites per neuron [2, 7] | axon length ([2]; 7 d injury-conditioned (pre-injured) DRG neurons, peptide added at 12 h, assessed at 36 h, FIG. 11C) | axon length ([2]; naive DRG neurons, delayed application, peptide added at 12 h, assessed at 36 h, FIG. 11C) | axonal protein synthesis (Puro incorporation in DRG axons) ([6]; listed as 190-208 G3BP1 peptide) | axonal protein synthesis (Puro incorporation in DRG axons) ([6]; listed as G3BP1 190-208 peptide) |
| --- | --- | --- | --- | --- | --- | --- | --- | --- | --- | --- | --- | --- | --- | --- |
| 5′ ccacauaggagcugggaauuu 3′ [G3BP1 siRNA] | significantly increased axon growth | – | – | – | – | – | – | – | – | – | – | – | – | – |
| Glu Glu Ser Glu Glu Glu Val Glu Glu Pro Glu Glu Arg Gln Gln Ser Pro Glu Val Val Tvr Glv Asn Lvs Lvs Asn Asn Gln Asn Asn Asn [147-166 peptide] | – | increased axon length | – | – | – | – | – | – | – | – | – | – | – | – |
| Tvr Glv Asn Lvs Lvs Asn Asn Asn Gln Asn Asn Asn Val Val Glu Pro Glu Pro Glu Pro Glu Pro Glu Pro Glu Pro Glu Pro Val Ser [190-208 peptide] | – | increased axon length | did not affect translation | significantly rescued axonal translation | did not affect translation | significant increase in axon growth; also recorded: significantly increased axon growth | striking decrease | significantly smaller | greater motility | increased number of neurites per neuron | significantly increased axon length; also recorded: effectively increase axon growth | significantly increased axon length; also recorded: effectively increase axon growth | significantly increased | increased axonal protein synthesis |
